Results from patent US7964624B1, “Inhibitors of serine proteases” (priority 2005, dated 2011).

These compounds were tested against T1, full-length hepatitis C viral protein NS3•4A (Hepatitis C virus genotype 1a, UniProt P27958) (assay: biochemical). Details: Enzyme Assay 2 (HCV NS3 Peptide Cleavage Assay) activity, apparent Ki class.
T1 construct: hexa-histidine (N); made in house; host or cells: Sf9 insect cells (baculovirus, pVL1392)
Parameters: species or system HCV sub-type strain 1a

SMILES | Ki [nM]
CCC[C@H](NC(=O)[C@@H]1C[C@]2(CC(c3cc(Cl)c(OC)cc3C)=NO2)CN1C(=O)[C@@H](NC(=O)CC(C)(C)C)C(C)(C)C)C(=O)C(N)=O [Compound 624] | 100 to 500
CCC[C@H](NC(=O)[C@@H]1C[C@]2(CC(c3ccc(F)c(Cl)c3)=NO2)CN1C(=O)[C@@H](NC(=O)CC(C)(C)C)C(C)(C)C)C(=O)C(N)=O [Compound 625] | < 100
CCC[C@H](NC(=O)[C@@H]1C[C@]2(CC(c3cc(Cl)c(OC)cc3C)=NO2)CN1C(=O)[C@@H](NC(=O)OC(C)(C)C)C(C)(C)C)C(=O)C(N)=O [Compound 626] | < 100
CCC[C@H](NC(=O)[C@@H]1C[C@]2(CC(c3ccc(F)c(Cl)c3)=NO2)CN1C(=O)[C@@H](NC(=O)OC(C)(C)C)C(C)(C)C)C(=O)C(N)=O [Compound 627] | < 100
CCC[C@H](NC(=O)[C@@H]1C[C@]2(CC(c3cc(Cl)c(OC)cc3C)=NO2)CN1C(=O)[C@@H](NC(=O)OC(C)(C)C)C(C)(C)C)C(=O)C(=O)NC1CC1 [Compound 628] | 100 to 500
CCC[C@H](NC(=O)[C@@H]1C[C@]2(CC(c3ccc(F)c(Cl)c3)=NO2)CN1C(=O)[C@@H](NC(=O)OC(C)(C)C)C(C)(C)C)C(=O)C(=O)NC1CC1 [Compound 629] | < 100
CCC[C@H](NC(=O)[C@@H]1C[C@]2(CC(c3cc(Cl)c(OC)cc3C)=NO2)CN1C(=O)[C@@H](NC(=O)OC(C)(C)C)C(C)(C)C)C(=O)C(=O)NC [Compound 630] | 100 to 500
CCC[C@H](NC(=O)[C@@H]1C[C@]2(CC(c3ccc(F)c(Cl)c3)=NO2)CN1C(=O)[C@@H](NC(=O)OC(C)(C)C)C(C)(C)C)C(=O)C(=O)NC [Compound 631] | < 100
CCC[C@H](NC(=O)[C@@H]1C[C@]2(CC(c3cc(Cl)ccc3OC)=NO2)CN1C(=O)[C@@H](NC(=O)CC1CCCCC1)C(C)(C)C)C(=O)C(=O)NC [Compound 632] | < 100
COc1ccc(Cl)cc1C1=NO[C@]2(C1)C[C@@H](C(=O)N[C@@H](CC1CC1)C(=O)C(N)=O)N(C(=O)[C@@H](NC(=O)CC1CCCCC1)C(C)(C)C)C2 [Compound 633] | < 100
CCC[C@H](NC(=O)[C@@H]1C[C@]2(CC(c3cc(Cl)ccc3OC)=NO2)CN1C(=O)[C@@H](NC(=O)CC1CCCCCC1)C(C)(C)C)C(=O)C(=O)NC [Compound 634] | < 100
COc1ccc(Cl)cc1C1=NO[C@]2(C1)C[C@@H](C(=O)N[C@@H](CC1CC1)C(=O)C(N)=O)N(C(=O)[C@@H](NC(=O)CC1CCCCCC1)C(C)(C)C)C2 [Compound 635] | < 100
CCC[C@H](NC(=O)[C@@H]1C[C@]2(CC(c3cc(Cl)ccc3OC)=NO2)CN1C(=O)[C@@H](NC(=O)CC1CCCCC1)C(C)(C)C)C(=O)C(N)=O [Compound 636] | < 100
CCC[C@H](NC(=O)[C@@H]1C[C@]2(CC(c3cc(Cl)ccc3OC)=NO2)CN1C(=O)[C@@H](NC(=O)CC1CCCCCC1)C(C)(C)C)C(=O)C(N)=O [Compound 637] | < 100
CCC[C@H](NC(=O)[C@@H]1C[C@]2(CC(c3cc(Cl)nc4ccccc34)=NO2)CN1C(=O)[C@@H](NC(=O)CC1CCCCC1)C(C)(C)C)C(=O)C(=O)NC1CC1 [Compound 638] | < 100
CCC[C@H](NC(=O)[C@@H]1C[C@]2(CC(c3cc(Cl)nc4ccccc34)=NO2)CN1C(=O)[C@@H](NC(=O)OC1CCCC1)C(C)(C)C)C(=O)C(=O)NC1CC1 [Compound 639] | < 100
CCC[C@H](NC(=O)[C@@H]1C[C@]2(CC(c3cc(C)c(OC)c(Cl)c3)=NO2)CN1C(=O)[C@@H](NC(=O)CC1CCCCC1)C(C)(C)C)C(=O)C(N)=O [Compound 640] | < 100
CCC[C@H](NC(=O)[C@@H]1C[C@]2(CC(c3cc(C)c(OC)c(Cl)c3)=NO2)CN1C(=O)[C@@H](NC(=O)CC1CCCCC1)C(C)(C)C)C(=O)C(=O)NC [Compound 641] | < 100
CNC(=O)C(=O)[C@H](CC1CC1)NC(=O)[C@@H]1C[C@]2(CC(c3cc(C)c(OC)c(Cl)c3)=NO2)CN1C(=O)[C@@H](NC(=O)CC1CCCCC1)C(C)(C)C [Compound 642] | < 100
CCC[C@H](NC(=O)[C@@H]1C[C@]2(CC(c3cc(Cl)cc(C)c3OC)=NO2)CN1C(=O)[C@@H](NC(=O)CC1CCCCC1)C(C)(C)C)C(=O)C(=O)NC1CC1 [Compound 643] | < 100
CCC[C@H](NC(=O)[C@@H]1C[C@]2(CC(c3cccc4cccnc34)=NO2)CN1C(=O)[C@@H](NC(=O)OC(C)(C)C)C(C)(C)C)C(=O)C(=O)NC [Compound 644] | 100 to 500
CCC[C@H](NC(=O)[C@@H]1C[C@]2(CC(c3cc(C)c(OC)c(Cl)c3)=NO2)CN1C(=O)[C@@H](NC(=O)OC(C)(C)C)C(C)(C)C)C(=O)C(=O)NC1CC1 [Compound 645] | < 100
CCC[C@H](NC(=O)[C@@H]1C[C@]2(CC(c3cc(C)c(OC)c(Cl)c3)=NO2)CN1C(=O)[C@@H](NC(=O)OC(C)(C)C)C(C)(C)C)C(=O)C(=O)NC [Compound 646] | < 100
CCC[C@H](NC(=O)[C@@H]1C[C@]2(CC(c3cccc4cccnc34)=NO2)CN1C(=O)[C@@H](NC(=O)OC1CCCC1)C(C)(C)C)C(=O)C(=O)NC [Compound 647] | 100 to 500

SMILES | Ki [nM]
CCC[C@H](NC(=O)[C@@H]1C[C@]2(CC(c3cccc4cccnc34)=NO2)CN1C(=O)[C@@H](NC(=O)OC1CCCC1)C(C)(C)C)C(=O)C(=O)NC1CC1 [Compound 648] | 100 to 500
CCC[C@H](NC(=O)[C@@H]1C[C@]2(CC(c3cc(Cl)ccc3OC)=NO2)CN1C(=O)[C@@H](NC(=O)CC1CCCCCC1)C(C)(C)C)C(=O)C(=O)NC1CC1 [Compound 649] | 100 to 500
CCC[C@H](NC(=O)[C@@H]1C[C@]2(CC(c3cc(Cl)c(OC)cc3C)=NO2)CN1C(=O)[C@@H](NC(=O)OC1CCCC1)C(C)(C)C)C(=O)C(=O)NC [Compound 650] | 100 to 500
CCC[C@H](NC(=O)[C@@H]1C[C@]2(CC(c3cc(Cl)c(OC)cc3C)=NO2)CN1C(=O)[C@@H](NC(=O)OC1CCCC1)C(C)(C)C)C(=O)C(N)=O [Compound 651] | 100 to 500
CCC[C@H](NC(=O)[C@@H]1C[C@]2(CC(c3ccc(F)c(Cl)c3)=NO2)CN1C(=O)[C@@H](NC(=O)OC1CCCC1)C(C)(C)C)C(=O)C(=O)NC1CC1 [Compound 652] | < 100
CCC[C@H](NC(=O)[C@@H]1C[C@]2(CC(c3ccc(F)c(Cl)c3)=NO2)CN1C(=O)[C@@H](NC(=O)OC1CCCC1)C(C)(C)C)C(=O)C(=O)NC [Compound 653] | 100 to 500
CCC[C@H](NC(=O)[C@@H]1C[C@]2(CC(c3ccc(F)c(Cl)c3)=NO2)CN1C(=O)[C@@H](NC(=O)OC1CCCC1)C(C)(C)C)C(=O)C(N)=O [Compound 654] | < 100
CCC[C@H](NC(=O)[C@@H]1C[C@]2(CC(c3cc(Cl)c(OC)cc3OC)=NO2)CN1C(=O)[C@@H](NC(=O)CC1CCCCCC1)C(C)(C)C)C(=O)C(=O)NC [Compound 655] | 100 to 500
CCC[C@H](NC(=O)[C@@H]1C[C@]2(CC(c3cc(Cl)c(OC)cc3OC)=NO2)CN1C(=O)[C@@H](NC(=O)CC1CCCCCC1)C(C)(C)C)C(=O)C(N)=O [Compound 656] | 100 to 500
CNC(=O)C(=O)[C@H](CC1CC1)NC(=O)[C@@H]1C[C@]2(CC(c3cc(Cl)c(OC)cc3OC)=NO2)CN1C(=O)[C@@H](NC(=O)CC1CCCCC1)C(C)(C)C [Compound 657] | < 100
COc1c(C)cc(C2=NO[C@]3(C2)CC(C(=O)N[C@H](CC2CC2)C(=O)C(N)=O)N(C(=O)[C@@H](NC(=O)CC2CCCCC2)C(C)(C)C)C3)cc1Cl (stereo partly drawn) [Compound 658] | 100 to 500
CCC[C@H](NC(=O)[C@@H]1C[C@]2(CC(c3nccc4ccccc34)=NO2)CN1C(=O)[C@@H](NC(=O)OC1CCCC1)C(C)(C)C)C(=O)C(=O)NC1CC1 [Compound 661] | < 100
CNC(=O)C(=O)[C@H](CC1CC1)NC(=O)[C@@H]1C[C@]2(CC(c3cc(Cl)c(OC)cc3C)=NO2)CN1C(=O)[C@@H](NC(=O)CC1CCCCC1)C(C)(C)C [Compound 662] | 100 to 500
CCC[C@H](NC(=O)[C@@H]1C[C@]2(CC(c3cc(Cl)c(OC)cc3C)=NO2)CN1C(=O)[C@@H](NC(=O)OC1CCCC1)C(C)(C)C)C(=O)C(=O)NC1CC1 [Compound 666] | < 100
CCC[C@H](NC(=O)[C@@H]1C[C@]2(CC(c3cc(Cl)ccn3)=NO2)CN1C(=O)[C@@H](NC(=O)OC1CCCC1)C(C)(C)C)C(=O)C(=O)NC1CC1 [Compound 667] | < 100
CNC(=O)C(=O)[C@H](CC1CC1)NC(=O)[C@@H]1C[C@]2(CC(c3cccc4cccnc34)=NO2)CN1C(=O)[C@@H](NC(=O)CC1CCCCC1)C(C)(C)C [Compound 671] | 100 to 500
CCC[C@H](NC(=O)[C@@H]1C[C@]2(CC(c3cc(Cl)c4c(c3)OCCO4)=NO2)CN1C(=O)[C@@H](NC(=O)CC1CCCCC1)C(C)(C)C)C(=O)C(=O)NC [Compound 674] | < 100
CNC(=O)C(=O)[C@H](CC1CC1)NC(=O)[C@@H]1C[C@]2(CC(c3cc(Cl)c4c(c3)OCCO4)=NO2)CN1C(=O)[C@@H](NC(=O)CC1CCCCC1)C(C)(C)C [Compound 675] | < 100
CCC[C@H](NC(=O)[C@@H]1C[C@]2(CC(c3cc(Cl)cc4c3OCOC4)=NO2)CN1C(=O)[C@@H](NC(=O)CC1CCCCC1)C(C)(C)C)C(=O)C(=O)NC1CC1 [Compound 676] | < 100
CNC(=O)C(=O)[C@H](CC1CC1)NC(=O)[C@@H]1C[C@]2(CC(c3cc(Cl)cc4c3OCOC4)=NO2)CN1C(=O)[C@@H](NC(=O)CC1CCCCC1)C(C)(C)C [Compound 677] | < 100
CCC[C@H](NC(=O)[C@@H]1C[C@]2(CC(c3cnc(OC)nc3OC)=NO2)CN1C(=O)[C@@H](NC(=O)OC1CCCC1)C(C)(C)C)C(=O)C(=O)NC1CC1 [Compound 678] | 100 to 500
CCC[C@H](NC(=O)[C@@H]1C[C@]2(CC(c3cc(Cl)ccc3OC)=NO2)CN1C(=O)[C@@H](NC(=O)OC1CCCC1)C(C)(C)C)C(=O)C(=O)NC1CC1 [Compound 686] | < 100
CNC(=O)C(=O)[C@H](CC1CC1)NC(=O)[C@@H]1C[C@]2(CC(c3cc(Cl)cc4c3OCO4)=NO2)CN1C(=O)[C@@H](NC(=O)OC(C)(C)C)C(C)(C)C [Compound 691] | 100 to 500
CNC(=O)C(=O)[C@H](CC1CC1)NC(=O)[C@@H]1C[C@@]2(CC(c3nc(-c4ccccc4)no3)=NO2)CN1C(=O)[C@@H](NC(=O)OC1CCCC1)C(C)(C)C [Compound 694] | 100 to 500
